From US20240067603A1, “CUBANYL BIGUANIDE COMPOUNDS” (REGENTS OF THE UNIVERSITY OF MINNESOTA, priority 2020, published 2024)

Test system: mm001
Experiment: Oxygen consumption rate (OCR), mm001
Format: cell-based, mouse (C57BL/6)
Description: Measurement of oxygen consumption rate (OCR). Cells were maintained in growth medium consisting of 10% FBS at 37° C. with 5% CO2 and seeded at 25,000 cells per well in a 96-well XF96 cell culture microplates (Agilent, Santa Clara, CA). An 96 well XF sensor cartridge was hydrated and equilibrated with 200 ul calibrant in each well at 37° C. without CO2 overnight. Growth media was replaced with 150 μL DMEM based assay media (a non-buffered medium including 2 mM L-glutamine but no sodium bicarbonate (buffering agent), glucose, or sodium pyruvate, Agilent, Santa Clara, CA) the next day and cells were incubated CO2 free for 1 hour before the measurement of OCR by a Seahorse XFe Extracellular Flux Analyzer (Agilent, Santa Clara, CA), which measures uptake and excretion of metabolic end products in real time. After baseline measurements, 20 μl assay medium containing control vehicle or drugs were injected into corresponding wells. OCRs were measured periodically and can be reported in pmoles/minute or normalized against baseline measurements before treatment.

CCCCCCNC(=N)NC(=N)NCC12C3C4C5C3C1C5C42 (stereo not shown) [HCB, Hexyl Cubanomethyl Biguanide]
OCR Inhibition [HCB] (uM) v vs. control (P < 0.05): 10 µM
